Measurements taken from article PMC10480161, “Identification of potent and selective N-myristoyltransferase inhibitors of Plasmodium vivax liver stage hypnozoites and schizonts” (Nature Communications, 2023).
Values joined by “and” are separate entries in the source; they are usually repeats but may differ in a detail not shown here. Equal values may be shown once.

Tests used:
[1] = system: primary human hepatocytes; assay: Nuclear counts (DAPI) in P. vivax-infected primary hepatocytes as measure of toxicity; assay type: cell-based; conditions: two technical replicates
Description: Accordingly, we applied dose–response curves of all the tested NMTs on parasite isolates 2 and 3 over concentrations up to 20 µM (Fig. 5c, d, Source Data file). […] Nuclei were counted in each well using DAPI staining as a measure of toxicity (Supplementary Fig. 86, Supplementary Source data). We used the phosphatidylinositol 4-kinase inhibitor (PI4Ki), MMV390048, as a positive control for eliminating schizonts[37],[38].
Plasmodium vivax liver stage assays were performed as described previously. Cryopreserved primary human hepatocytes (Cat No. F00995-P) and hepatocyte culture medium (HCM) (InVitroGroTM CP Medium) were obtained from Bioreclamation IVT, Inc., (Baltimore, MD, USA). Briefly, we seeded 384-well plates with primary hepatocytes from a single donor lot at a density of 25,000 cells per well. We then infected the hepatocytes with 14,000 freshly hand-dissected sporozoites per well. Cells were exposed to the compounds at indicated concentrations from day 5 post-infection. We used Pi4K inhibitor MMV390048, at 20 µM, as a positive control to eliminate P. vivax liver schizonts. We then proceeded to feed cultures every day, replacing the compounds until day 8 post-infection. Cells were fixed with 4% PFA, permeabilized with 1% Triton X-100, blocked with 2% BSA, and stained with DAPI and PvUIS4 antibodies to detect schizonts and hypnozoites forms by confocal microscopy. […] DAPI was diluted 1:2000. The images were processed, analyzed and outlier cells were removed using IMARIS (Bitplane Inc.) image analysis software.
Supplementary Fig. 86. […] Nuclear […]
counts, normalized to DMSO controls, for NMT inhibitors across a dose response. Counts were ob-tained using DAPI staining from the P. vivax-infected wells quantified in Fig. 5d. Error bars represent the standard deviation of two technical replicates.
(1 picture or pasted object on this page, not shown here)

PvNMT = PvNMT (Plasmodium vivax, UniProt A5K1A2); assay: NMT activity assay (CPM detection of free CoA), PvNMT; conditions: for IC50: PvNMT IC50, mean of two or more determinations; for SI: enzyme selectivity, HsNMT IC50/PvNMT IC50
HsNMT1 = target: T1, HsNMT1 (Homo sapiens, UniProt P30419); assay: NMT activity assay (CPM detection of free CoA), HsNMT
T1 sequence (P30419 1-496): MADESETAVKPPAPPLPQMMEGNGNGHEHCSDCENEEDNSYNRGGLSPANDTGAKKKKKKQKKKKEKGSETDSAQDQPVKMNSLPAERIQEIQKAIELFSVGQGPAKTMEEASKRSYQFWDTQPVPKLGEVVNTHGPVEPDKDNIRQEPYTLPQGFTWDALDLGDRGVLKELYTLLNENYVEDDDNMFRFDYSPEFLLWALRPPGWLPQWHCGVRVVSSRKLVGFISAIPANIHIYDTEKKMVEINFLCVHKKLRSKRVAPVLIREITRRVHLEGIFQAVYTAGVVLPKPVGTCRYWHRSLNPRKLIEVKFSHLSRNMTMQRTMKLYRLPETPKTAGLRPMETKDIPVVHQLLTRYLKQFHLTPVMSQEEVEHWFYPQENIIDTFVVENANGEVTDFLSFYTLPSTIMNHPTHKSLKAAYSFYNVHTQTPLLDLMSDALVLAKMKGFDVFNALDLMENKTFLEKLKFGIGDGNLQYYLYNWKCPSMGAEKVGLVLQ

HepG2 cells = assay: HepG2 cytotoxicity assay (Live/Dead staining); conditions: replicates
Description: Therefore, we assessed cytotoxicity in the human hepatoma HepG2 cell line. We required a PvNMT to HsNMT SI > 20 for further screening. HepG2 cells were exposed to the compounds at concentrations ranging from 1 to 20 µM for […], and toxicity was assessed via live-dead staining.
The viability of the HepG2 cell line following exposure to the compounds was determined by a Live/Dead cell assay kit (Invitrogen). Briefly, cells were added to a 96-well plate at a concentration of 5000 cells per well, excluding the exterior wells. Cells were exposed to the compounds at different concentrations ranging from 1 to 20 µM. Cells were washed every 24 h and supplemented with fresh doses of compounds. At 72 h post-treatment, 1 µM calcein-AM and 1 µM ethidium homodimer were added to the wells and incubated for 10 min at 37 °C. After washing with PBS, the cells were visualized with fluorescent microscopy (Keyence BZ-X700).

P. vivax hypnozoites = assay: P. vivax liver stage assay, hypnozoites; assay type: cell-based, Plasmodium vivax; conditions: for Hypnozoites per well: Isolate 2, replicate wells (Figure 6d); for Number of liverstage hypnozoites per well: 8 dpi; for IC50: Hepatocyte, 120 h, primary human hepatocytes, treatment day 5 to 8 post-infection, isolate 2
Description: Finally, we evaluated the NMT-binding compounds against non-developing P. vivax hypnozoites. […] (Fig. 6A). […] We, therefore, evaluated the impact of all tested compounds on P. vivax hypnozoites using these two isolates.
Plasmodium vivax liver stage assays were performed as described previously. Cryopreserved primary human hepatocytes (Cat No. F00995-P) and hepatocyte culture medium (HCM) (InVitroGroTM CP Medium) were obtained from Bioreclamation IVT, Inc., (Baltimore, MD, USA). Briefly, we seeded 384-well plates with primary hepatocytes from a single donor lot at a density of 25,000 cells per well. We then infected the hepatocytes with 14,000 freshly hand-dissected sporozoites per well. Cells were exposed to the compounds at indicated concentrations from day 5 post-infection. We used Pi4K inhibitor MMV390048, at 20 µM, as a positive control to eliminate P. vivax liver schizonts. We then proceeded to feed cultures every day, replacing the compounds until day 8 post-infection. Cells were fixed with 4% PFA, permeabilized with 1% Triton X-100, blocked with 2% BSA, and stained with DAPI and PvUIS4 antibodies to detect schizonts and hypnozoites forms by confocal microscopy. For antibody dilutions, PvUIS4 (kind gift from Dr. Noah Sather, Seattle Children’s Research Institute) was diluted 1:250 and the secondary antibody was anti-mouse AlexaFluor-594 (Cat # A-11005; RRID: AB_2534073) diluted 1:1000. DAPI was diluted 1:2000. The images were processed, analyzed and outlier cells were removed using IMARIS (Bitplane Inc.) image analysis software.

[2] = 20 µM, isolate 1, technical replicates (Fig. 6C)
[3] = 20 µM, isolate 2, technical replicates (Fig. 6C)
[4] = 20 µM, isolate 3, technical replicates (Fig. 6C)

Sequence of PvNMT (A5K1A2 entry or part of it): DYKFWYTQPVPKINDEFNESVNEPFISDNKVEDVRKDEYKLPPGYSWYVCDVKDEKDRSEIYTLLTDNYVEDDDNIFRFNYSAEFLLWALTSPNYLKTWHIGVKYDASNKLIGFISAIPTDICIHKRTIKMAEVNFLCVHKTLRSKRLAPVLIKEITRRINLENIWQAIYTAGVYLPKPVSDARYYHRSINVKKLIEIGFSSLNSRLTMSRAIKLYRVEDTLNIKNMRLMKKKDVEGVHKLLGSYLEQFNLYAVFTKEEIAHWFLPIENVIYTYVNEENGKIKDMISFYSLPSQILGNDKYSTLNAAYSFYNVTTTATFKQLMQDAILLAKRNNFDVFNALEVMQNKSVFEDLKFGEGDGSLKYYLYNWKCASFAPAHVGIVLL

Structure (SMILES)	Nucleus counts per well ([1]; 1 uM)	Nucleus counts per well ([1]; 2.5uM)	Nucleus counts per well ([1]; 5 uM)	Nucleus counts per well ([1]; 10uM)	Nucleus counts per well ([1]; 20uM, P. vivax-infected wells)	IC50 (PvNMT)	Percentage of live HepG2 cells compared with diluent controls (HepG2 cells; 1 μM)	Percentage of live HepG2 cells compared with diluent controls (HepG2 cells; 2.5 μM)	Percentage of live HepG2 cells compared with diluent controls (HepG2 cells; 5 μM)	Percentage of live HepG2 cells compared with diluent controls (HepG2 cells; 10 μM)	Percentage of live HepG2 cells compared with diluent controls (HepG2 cells; 20 μM)	Hypnozoites per well (P. vivax hypnozoites; 1.25 uM)	Hypnozoites per well (P. vivax hypnozoites; 2.5 uM)	Hypnozoites per well (P. vivax hypnozoites; 5 uM)	Hypnozoites per well (P. vivax hypnozoites; 10 uM)	Number of liverstage hypnozoites per well (P. vivax hypnozoites; [2])	Number of liverstage hypnozoites per well (P. vivax hypnozoites; [3])	Number of liverstage hypnozoites per well (P. vivax hypnozoites; [4])	Hypnozoites per well (P. vivax hypnozoites; 20 uM)	IC50 (P. vivax hypnozoites; Plasmodium vivax)	other results
Fc1ccc(-c2ccnc(N3CCNCC3)c2)c(OCCc2cccnc2)c1 [Compound 12l]	15910 per well and 14650 per well	13010 per well and 13310 per well	13030 per well and 13070 per well	13130 per well and 13070 per well	11440 per well and 13460 per well	23.4 nM	89.7539% and 87.5192%	87.1294% and 87.1034%	86.8955% and 86.7396%	88.7665% and 86.09%	76.2415% and 75.9816%	5 and 8 and 2	6 and 4 and 1	5 and 7 and 0	1 and 14 and 0	0 per well (2×) and 5 per well	0 per well (2×) and 5 per well	0 per well	0 (2×) and 5	2100 nM	SI (PvNMT): 73; IC50 (HsNMT1): 1710 nM; hypnozoites (fold change to DMSO) mean diff (P. vivax hypnozoites; isolate 1, 20 µM): 1.000; hypnozoites (fold change to DMSO) mean diff (P. vivax hypnozoites; isolate 2, 20 µM): 0.828
Cc1nn(C)c(C)c1CCOc1cccnc1-c1ccnc(N2CCNCC2)c1 [Compound 12a]	15610 per well and 14860 per well	15510 per well and 15490 per well	15510 per well and 14150 per well	13830 per well and 15570 per well	12100 per well and 13960 per well	36.8 nM	103.266% and 104.098%	103.396% and 103.37%	103.812% and 94.3274%	93.0541% and 92.1966%	80.685% and 80.1653%	12 and 10 and 8	8 and 7 and 13	6 and 8 and 7	1 and 3 and 0	8 per well (2×) and 0 per well	0 per well (2×) and 3 per well	0 per well	0 (2×) and 3	5700 nM	SI (PvNMT): 146.7; IC50 (HsNMT1): 5400 nM; hypnozoites (fold change to DMSO) mean diff (P. vivax hypnozoites; isolate 1, 20 µM): 0.754; hypnozoites (fold change to DMSO) mean diff (P. vivax hypnozoites; isolate 2, 20 µM): 0.897
c1cncc(CCOc2ccc3ccccc3c2-c2ccnc(N3CCNCC3)c2)c1 [Compound 30c]	12390 per well and 13530 per well	13960 per well and 13570 per well	14060 per well and 13800 per well	13530 per well and 13880 per well	14090 per well and 14800 per well	248 nM	102.591% and 103.526%	103.812% and 93.9636%	93.7037% and 93.0801%	92.5344% and 91.9887%	79.2818% and 86.3846%	8 and 15 and 7	5 and 6 and 12	0 and 5 and 13	5 and 0 and 4	0 per well and 1 per well and 4 per well	4 per well (2×) and 1 per well	0 per well	4 (2×) and 1	3800 nM	inhibition at 20 µM (P. vivax hypnozoites; Plasmodium vivax, 20 µM): > 75%; hypnozoites (fold change to DMSO) mean diff (P. vivax hypnozoites; isolate 1, 20 µM): 0.939; hypnozoites (fold change to DMSO) mean diff (P. vivax hypnozoites; isolate 2, 20 µM): 0.690
